Experimental data from patent publication US20240399001A1, “RA[…] TH[…] TO FIBROBLAST ACTIVATION PROTEIN (FAP)” (BLUE EARTH D[…], priority 2021, published 2024).

How the values were obtained:
FAP = target: T1, FAP (Homo sapiens, UniProt Q12884); test: In vitro FAP binding affinity, Grating-Coupled Interferometry (GCI), waveRAPID kinetics assay; settings: immobilized biotinylated FAP; 1×PBS pH 7.4, 1 mM DTT, 0.005% Tween, 2% DMSO; non-radiolabelled compounds
T1 construct: biotin (biotinylated)
T1 sequence (Q12884 1-760): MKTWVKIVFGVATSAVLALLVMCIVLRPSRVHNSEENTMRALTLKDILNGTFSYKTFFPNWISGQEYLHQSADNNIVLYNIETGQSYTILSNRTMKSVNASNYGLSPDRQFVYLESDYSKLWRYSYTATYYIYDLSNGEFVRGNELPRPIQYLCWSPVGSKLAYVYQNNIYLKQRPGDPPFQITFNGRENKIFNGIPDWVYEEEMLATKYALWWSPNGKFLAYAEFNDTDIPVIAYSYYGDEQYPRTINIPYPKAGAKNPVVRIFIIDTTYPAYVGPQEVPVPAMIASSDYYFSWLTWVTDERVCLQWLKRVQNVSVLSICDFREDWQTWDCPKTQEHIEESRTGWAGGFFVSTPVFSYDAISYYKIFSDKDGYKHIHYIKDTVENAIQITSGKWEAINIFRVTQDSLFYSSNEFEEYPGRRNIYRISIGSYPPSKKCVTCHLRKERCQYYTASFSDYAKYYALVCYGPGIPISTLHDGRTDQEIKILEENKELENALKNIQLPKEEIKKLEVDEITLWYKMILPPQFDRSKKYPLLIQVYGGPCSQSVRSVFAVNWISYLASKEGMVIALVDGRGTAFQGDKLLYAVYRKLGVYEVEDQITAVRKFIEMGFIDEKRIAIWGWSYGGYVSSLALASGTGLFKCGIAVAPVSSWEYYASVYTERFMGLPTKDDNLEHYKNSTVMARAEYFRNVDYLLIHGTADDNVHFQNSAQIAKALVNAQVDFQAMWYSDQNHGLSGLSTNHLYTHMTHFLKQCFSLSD
Procedure: The binding affinity of non-radiolabelled compounds Example 2 (Ga—(S,R,R)—SiFA-FAP-1) and Example 1 ((S,R,R)—SiFA-FAP-1) was assessed in vitro using Grating-Coupled Interferometry (GCI) and waveRAPID kinetics assay (Kartal Ö et al. SLAS Discov. 2021 September; 26(8)-995-1003).
FAP was immobilized on a streptavidin sensor chap in order to assess target binding of compounds. Briefly, the streptavidin chip was conditioned with borate buffer and activated with EDC-NHS solution. Immobilization was achieved via amine coupling to the surface on an amine reactive sensor chip (NeutrAvidin sensor chip) and unused amine reactive groups were deactivated with ethanolamine. FAP was immobilized via via NeutrAvidin capturing of the biotinylated FAP and remaining NeutrAvidin quenched with biocytin. Binding of the compounds to immobilized FAP was assessed using the waveRAPID kinetics assay, using different concentrations of each compound in 1×PBS pH 7.4, 1 mM DTT, 0.005% Tween, 2% DMSO. Binding affinity to FAP was reported as KD.

[1] = system: subcutaneous U87-MG tumour; test: In vivo PET imaging uptake in U87-MG tumour-bearing mice; settings: 60 minutes post-radiotracer administration; for PET imaging uptake, Muscle: U87-MG tumor-bearing mice; for PET imaging uptake, Muscle / PET imaging uptake, Tumor: i.v.
Procedure: (§1) The human glioblastoma U87-MG cell line was purchased from ATCC. Cells were cultured in EMEM (supplemented with 2 mM L-glutamine, with 10% fetal bovine serum and 0.1 mM NEAA) at 37° C. in a humidified atmosphere (5% CO2, 95% air).
(§2) All animal experiments were conducted in accordance with the Federation for Laboratory Animal Science Associations guidelines. Healthy female Swiss nude (CrI:NU(Ico)-Foxn1nu) mice (5-6 weeks old) were purchased from Charles River. Mice were irradiated 24-72 hours prior to tumour cell inoculation (whole-body irradiation, 2 Gy/mouse), and U87-MG cells (1×10^7 in 200 μL of RPMI 1640) were then injected subcutaneously into the right shoulder flank.
(§3) Female Swiss nude (CrI:NU(Ico)-Foxn1nu) mice each bearing a subcutaneous U87-MG tumour in the right flank (n=4) were administered with radiolabelled compound of Example 11 ([^18F]—Ga—(S,R,R)—SiFA-FAP-1) (8±1.5 MBq, 100 μL per mouse) intravenously into the tail vein (approximately 3 weeks post inoculation of U87-MG cells). Static PET imaging was performed 60 minutes post-radiotracer administration under anaesthesia (2% isoflurane) using a small animal PET scanner (eXploreVISTA, GE) (n=3). Whole-body PET acquisitions were performed over two bed positions for 20 minutes. Regions of interest were generated, and radiotracer uptake in tissues was calculated as % injected dose per region of interest volume (% ID/cm^3). Immediately post-PET imaging, mice (n=4) were sacrificed and select tissues (blood, tumor, heart, lung, liver, kidneys, spleen, pancreas, intestine, bone, muscle, tail) were harvested and weighed. Radioactivity in the collected samples was determined using γ-counting (Packard). Radiotracer uptake was calculated as % injected dose per gram of tissue (% ID/g).

[2] = system: subcutaneous U87-MG tumour; test: Biodistribution by γ-counting of excised tissues of U87-MG tumour-bearing mice; format: in vivo; settings: γ-counting 80 minutes post-radiotracer injection; for Biodistribution, Blood / Biodistribution, Bone / Biodistribution, Heart / Biodistribution, Intestine / Biodistribution, Kidneys / Biodistribution, Liver / Biodistribution, Lung / Biodistribution, Muscle / Biodistribution, Pancreas / Biodistribution, Spleen: U87-MG tumor-bearing mice
Procedure: as §1, §2, §3

CC(C)(C)[Si](F)(c1ccc(C(=O)NC[C@@H](NC(=O)CC[C@H](C(=O)O)N2CCN(CC(=O)O)CCN(CC(=O)O)CCN(CC(=O)O)CC2)C(=O)NCCCOc2ccc3nccc(C(=O)NCC(=O)N4CCC[C@H]4C#N)c3c2)cc1)C(C)(C)C [Example 1, 2,2′,2″-(10-((R)-1-Carboxy-4-(((R)-1-((3-((4-((2-((S)-2-cyanopyrrolidin-1-yl)-2-oxoethyl)carbamoyl)quinolin-6-yl)oxy)propyl)amino)-3-(4-(di-tert-butylfluorosilyl)benzamido)-1-oxopropan-2-yl)amino)-4-oxobutyl)-1,4,7,10-tetraazacyclododecane-1,4,7-triyl) triacetic acid]
Kd (FAP): 0.031 nM

CC(C)(C)[Si]([18F])(c1ccc(C(=O)NC[C@@H](NC(=O)CC[C@H](C(=O)O)N2CCN(CC(=O)O)CCN(CC(=O)O)CCN(CC(=O)O)CC2)C(=O)NCCCOc2ccc3nccc(C(=O)NCC(=O)N4CCC[C@H]4C#N)c3c2)cc1)C(C)(C)C [Example 11]
PET imaging Tumor:Muscle ratio ([1]; Mean ± SD (n=3)): 4.4 ± 0.8 | PET imaging Tumor:Muscle ratio ([1]; Mouse 1): 4.6 | PET imaging Tumor:Muscle ratio ([1]; Mouse 2): 5 | PET imaging Tumor:Muscle ratio ([1]; Mouse 3): 3.5 | PET imaging uptake, Muscle ([1]; Mean ± SD (n=3)): 1.0 ± 0.1 % ID/cm^3 | PET imaging uptake, Muscle ([1]; Mouse 1): 1 % ID/cm^3 | PET imaging uptake, Muscle ([1]; Mouse 2): 0.8 % ID/cm^3 | PET imaging uptake, Muscle ([1]; Mouse 3): 1.1 % ID/cm^3 | PET imaging uptake, Tumor ([1]; Mean ± SD (n=3)): 4.1 ± 0.3 % ID/cm^3 | PET imaging uptake, Tumor ([1]; Mouse 1): 4.4 % ID/cm^3 | PET imaging uptake, Tumor ([1]; Mouse 2): 4.2 % ID/cm^3 | PET imaging uptake, Tumor ([1]; Mouse 3): 3.8 % ID/cm^3 | Biodistribution, Blood ([2]; Mean ± SD (n=4)): 2.6 ± 1.1 % ID/g | Biodistribution, Bone ([2]; Mean ± SD (n=4)): 5.1 ± 1.3 % ID/g | Biodistribution, Heart ([2]; Mean ± SD (n=4)): 1.1 ± 0.2 % ID/g | Biodistribution, Intestine ([2]; Mean ± SD (n=4)): 7.3 ± 2.4 % ID/g | Biodistribution, Kidneys ([2]; Mean ± SD (n=4)): 3.0 ± 1.2 % ID/g | Biodistribution, Liver ([2]; Mean ± SD (n=4)): 3.3 ± 0.8 % ID/g | Biodistribution, Lung ([2]; Mean ± SD (n=4)): 1.7 ± 0.1 % ID/g | Biodistribution, Muscle ([2]; Mean ± SD (n=4)): 0.6 ± 0.1 % ID/g | Biodistribution, Pancreas ([2]; Mean ± SD (n=4)): 0.6 ± 0.1 % ID/g | Biodistribution, Spleen ([2]; Mean ± SD (n=4)): 0.7 ± 0.1 % ID/g | Biodistribution, Blood ([2]; Mouse 1): 2.0 % ID/g | Biodistribution, Bone ([2]; Mouse 1): 5.7 % ID/g | Biodistribution, Heart ([2]; Mouse 1): 1.1 % ID/g | Biodistribution, Intestine ([2]; Mouse 1): 5.4 % ID/g | Biodistribution, Kidneys ([2]; Mouse 1): 3.8 % ID/g | Biodistribution, Liver ([2]; Mouse 1): 3.8 % ID/g | Biodistribution, Lung ([2]; Mouse 1): 1.6 % ID/g | Biodistribution, Muscle ([2]; Mouse 1): 0.5 % ID/g | Biodistribution, Pancreas ([2]; Mouse 1): 0.7 % ID/g | Biodistribution, Spleen ([2]; Mouse 1): 0.7 % ID/g | Biodistribution, Blood ([2]; Mouse 2): 1.3 % ID/g | Biodistribution, Bone ([2]; Mouse 2): 6.6 % ID/g | Biodistribution, Heart ([2]; Mouse 2): 0.9 % ID/g | Biodistribution, Intestine ([2]; Mouse 2): 5.3 % ID/g | Biodistribution, Kidneys ([2]; Mouse 2): 1.6 % ID/g | Biodistribution, Liver ([2]; Mouse 2): 2.5 % ID/g | Biodistribution, Lung ([2]; Mouse 2): 1.8 % ID/g | Biodistribution, Muscle ([2]; Mouse 2): 0.8 % ID/g | Biodistribution, Pancreas ([2]; Mouse 2): 0.6 % ID/g | Biodistribution, Spleen ([2]; Mouse 2): 0.6 % ID/g | Biodistribution, Blood ([2]; Mouse 3): 3.5 % ID/g | Biodistribution, Bone ([2]; Mouse 3): 4.0 % ID/g | Biodistribution, Heart ([2]; Mouse 3): 1.3 % ID/g | Biodistribution, Intestine ([2]; Mouse 3): 8.6 % ID/g | Biodistribution, Kidneys ([2]; Mouse 3): 4.2 % ID/g | Biodistribution, Liver ([2]; Mouse 3): 2.7 % ID/g | Biodistribution, Lung ([2]; Mouse 3): 1.7 % ID/g | Biodistribution, Muscle ([2]; Mouse 3): 0.5 % ID/g | Biodistribution, Pancreas ([2]; Mouse 3): 0.6 % ID/g | Biodistribution, Spleen ([2]; Mouse 3): 0.7 % ID/g | Biodistribution, Blood ([2]; Mouse 4): 3.5 % ID/g | Biodistribution, Bone ([2]; Mouse 4): 4.2 % ID/g | Biodistribution, Heart ([2]; Mouse 4): 1.2 % ID/g | Biodistribution, Intestine ([2]; Mouse 4): 10.1 % ID/g | Biodistribution, Kidneys ([2]; Mouse 4): 2.4 % ID/g | Biodistribution, Liver ([2]; Mouse 4): 4.2 % ID/g | Biodistribution, Lung ([2]; Mouse 4): 1.8 % ID/g | Biodistribution, Muscle ([2]; Mouse 4): 0.6 % ID/g | Biodistribution, Pancreas ([2]; Mouse 4): 0.5 % ID/g | Biodistribution, Spleen ([2]; Mouse 4): 0.7 % ID/g | radiotracer uptake higher in tumor compared to muscle (biodistribution analyses) [2]: 8 fold | Biodistribution - Tumor to muscle ratio (T:M) ([2]; Mean ± SD (n=4)): 8.3 ± 2.9 | Biodistribution, Tumor ([2]; Mean ± SD (n=4)): 4.8 ± 1.1 % ID/g | Biodistribution - Tumor to muscle ratio (T:M) ([2]; Mouse 1): 11.0 | Biodistribution, Tumor ([2]; Mouse 1): 5.8 % ID/g | Biodistribution - Tumor to muscle ratio (T:M) ([2]; Mouse 2): 5.9 | Biodistribution, Tumor ([2]; Mouse 2): 4.8 % ID/g | Biodistribution - Tumor to muscle ratio (T:M) ([2]; Mouse 3): 10.6 | Biodistribution, Tumor ([2]; Mouse 3): 5.2 % ID/g | Biodistribution - Tumor to muscle ratio (T:M) ([2]; Mouse 4): 5.7 | Biodistribution, Tumor ([2]; Mouse 4): 3.2 % ID/g
